The values below come from patent publication US20160229839A1, “Factor XIa Inhibitors” (Merck Sharp & Dohme Corp., priority 2013, published 2016).

The target of the assay is T1, purified human Factor XIa (Homo sapiens, UniProt P03951).
T1 construct: purified human Factor XIa; purchased Sekisui Diagnostics
Put plainly: Factor XIa Assay (fluorogenic substrate Z-Gly-Pro-Arg-AFC). Type of assay: biochemical. Particulars: purified human Factor XIa 40 pM; Z-Gly-Pro-Arg-AFC 100 μM; 50 mM HEPES pH 7.4; read-out: hFXIa Ki (nM), Factor XIa inhibition. As to the method:
The effectiveness of compound of the present invention as inhibitors of Coagulation Factor XIa can be determined using a relevant purified serine protease, and an appropriate synthetic substrate. The rate of hydrolysis of the chromogenic or fluorogenic substrate by the relevant serine protease was measured both in the absence and presence of compounds of the present invention. Assays were conducted at room temperature or at 37° C. […] A decrease in the rate of fluorescence change in the presence of inhibitor is indicative of enzyme inhibition. Such methods are known to one skilled in the art. The results of this assay are expressed as the inhibitory constant, Ki.
Factor XIa determinations were made in 50 mM HEPES buffer at pH 7.4 containing 150 mM NaCl, 5 mM CaCl2, and 0.1% PEG 8000 (polyethylene glycol; J T Baker or Fisher Scientific). Determinations were made using purified human Factor XIa at a final concentration of 40 pM (Sekisui Diagnostics) and he synthetic substrate, Z-Gly-Pro-Arg-AFC, TFA salt (Sigma #C0980) at a concentration of 100 μM.
Activity assays were performed by diluting a stock solution of substrate at least tenfold to a final concentration ≦0.1 Km into a solution containing enzyme or enzyme equilibrated with inhibitor. Times required to achieve equilibration between enzyme and inhibitor were determined in control experiments. Initial velocities of product formation in the absence (Vo) or presence of inhibitor (Vi) were measured. Assuming competitive inhibition, and that unity is negligible compared Km/[S], [I]/e, and [I]/e (where [S], [I], and e respectively represent the total concentrations, of substrate, inhibitor and enzyme), the equilibrium constant (Ki) for dissociation of the inhibitor from the enzyme can be obtained from the dependence of Vo/Vi on [I] shown in the following equation.

Molecules are shown by their SMILES.

T1 sequence (P03951 388-625 limits assumed): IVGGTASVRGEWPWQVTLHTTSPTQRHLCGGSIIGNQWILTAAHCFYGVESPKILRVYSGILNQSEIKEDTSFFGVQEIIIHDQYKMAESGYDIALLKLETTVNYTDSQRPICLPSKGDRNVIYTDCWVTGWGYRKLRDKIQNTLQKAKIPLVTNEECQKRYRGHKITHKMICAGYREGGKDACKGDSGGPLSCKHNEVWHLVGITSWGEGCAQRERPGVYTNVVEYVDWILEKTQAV
T1 sequence (P03951 19-387 partner limits assumed): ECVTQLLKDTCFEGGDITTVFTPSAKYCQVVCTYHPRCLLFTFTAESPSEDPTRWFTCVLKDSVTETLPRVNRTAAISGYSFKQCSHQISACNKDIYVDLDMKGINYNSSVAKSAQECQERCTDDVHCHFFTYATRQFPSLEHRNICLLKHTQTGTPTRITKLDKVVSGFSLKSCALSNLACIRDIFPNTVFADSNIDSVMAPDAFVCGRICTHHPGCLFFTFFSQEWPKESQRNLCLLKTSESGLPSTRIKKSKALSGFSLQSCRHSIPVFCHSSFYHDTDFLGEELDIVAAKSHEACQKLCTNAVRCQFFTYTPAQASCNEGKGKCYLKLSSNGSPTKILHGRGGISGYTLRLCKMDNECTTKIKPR

For the compound `O=C(O)c1ccc(NC(=O)C2C(c3ccccc3)CCCN2C(=O)CCc2cc(Cl)ccc2-n2cnnn2)cc1` (stereo not drawn) [Example 1-9, 4-(1-(3-(5-chloro-2-(1H-tetrazol-1-yl)phenyl)propanoyl)-3-phenylpiperidine-2-carboxamido)benzoic acid], the Ki stood at 57.1 nM. The figure for `O=C(O)c1ccc(NC(=O)C2C(c3cccc(F)c3)CCCN2C(=O)/C=C/c2cc(Cl)ccc2-n2cnnn2)cc1` (stereo not drawn) [Example 1-10, (E)-4-(1-(3-(5-chloro-2-(H-tetrazol-1-yl)phenyl)acryloyl)-3-(3-fluorophenyl)piperidine-2-carboxamido)benzoic acid] is 18.1 nM; for `O=C(/C=C/c1cc(Cl)ccc1-n1cnnn1)N1CCCC(c2ccccc2)C1c1nc(-c2cccnc2)c[nH]1` [Example 1-11, (E)-3-(5-chloro-2-(1H-tetrazol-1-yl)phenyl)-1-(3-phenyl-2-(4-(pyridin-3-yl)-1H-imidazol-2-yl)piperidin-1-yl)prop-2-en-1-one (2R,3R)] it is 8650 nM.

For the compound `O=C(/C=C/c1cc(Cl)ccc1-n1cnnn1)N1CCCC(c2ccccc2)C1c1nc(-c2cccnc2)c[nH]1` [Example 1-12, (E)-3-(5-chloro-2-(1H-tetrazol-1-yl)phenyl)-1-(3-phenyl-2-(4-(pyridin-3-yl)-1H-imidazol-2-yl)piperidin-1-yl)prop-2-en-1-one (2S,3S)], the inhibition constant Ki amounted to 570 nM. With `O=C(/C=C/c1cc(Cl)ccc1-n1cnnn1)N1CCCC(c2ccccc2)C1c1nc(-c2ccc(F)cc2)c[nH]1` (stereo not drawn) [Example 1-13, (E)-3-(5-chloro-2-(1H-tetrazol-1-yl)phenyl)-1-(2-(4-(4-fluorophenyl)-1H-imidazol-2-yl)-3-phenylpiperidin-1-yl)prop-2-en-1-one], the Ki was over 10000 nM.

Regarding `CC(C)(N)c1ccc(C(=O)N2CCCC(c3ccccc3)C2C(=O)Nc2ccc(C(=O)O)cc2)cc1` (stereo not drawn) [Example 1-15, 4-(1-(4-(2-aminopropan-2-yl)benzoyl)-3-phenylpiperidine-2-carboxamido)benzoic acid], the Ki was over 10000 nM. The figure for `N[C@H]1CCc2cc(C(=O)N3CCCC(c4ccccc4)C3C(=O)Nc3ccc(C(=O)O)cc3)ccc21` (stereo partly drawn) [Example 1-16, 4-(1-((S)-1-amino-2,3-dihydro-1H-indene-5-carbonyl)-3-phenylpiperidine-2-carboxamido)benzoic acid] is 619 nM; for `O=C(O)c1ccc(NC(=O)C2C(c3cccc(C(F)(F)F)c3)CCCN2C(=O)/C=C/c2cc(Cl)ccc2-n2cnnn2)cc1` (stereo not drawn) [Example 1-17, ammonium (E)-4-(1-(3-(5-chloro-2-(1H-tetrazol-1-yl)phenyl)acryloyl)-3-(3-(trifluoromethyl)phenyl)piperidine-2-carboxamido)benzoate] it is 2850 nM.

In the case of `O=C(O)c1ccc(NC(=O)C2C(c3ccc(F)cc3)CCCN2C(=O)/C=C/c2cc(Cl)ccc2-n2cnnn2)cc1` (stereo not drawn) [Example 1-18, ammonium (E)-4-(1-(3-(5-chloro-2-(1H-tetrazol-1-yl)phenyl)acryloyl)-3-(4-fluorophenyl)piperidine-2-carboxamido)benzoate], the Ki was 25.3 nM. As for `O=C(O)C1CCC(NC(=O)C2C(c3ccc(F)cc3F)CCCN2C(=O)/C=C/c2cc(Cl)ccc2-n2cnnn2)CC1` (stereo not drawn) [Example 1-19, ammonium (E)-4-(1-(3-(5-chloro-2-(1H-tetrazol-1-yl)phenyl)acryloyl)-3-(2,4-difluorophenyl)piperidine-2-carboxamido)cyclohexanecarboxylate], the figure is over 10000 nM. With `NCc1ccc(C(=O)N2CCCC(c3ccccc3)C2C(=O)Nc2ccc(C(=O)O)cc2)cc1` (stereo not drawn) [Example 1-20, (4-(2-((4-carboxyphenyl)carbamoyl)-3-phenylpiperidine-1-carbonyl)phenyl)methanaminium 2,2,2-trifluoroacetate], the Ki was found to be 627 nM. Consider `O=C(/C=C/c1cc(Cl)ccc1-n1cnnn1)N1CCCC(c2ccccc2)C1c1nc(-c2ccc(Cl)cc2)c[nH]1` (stereo not drawn) [Example 1-21, (E)-3-(5-chloro-2-(1H-tetrazol-1-yl)phenyl)-1-(2-(4-(4-chlorophenyl)-1H-imidazol-2-yl)-3-phenylpiperidin-1-yl)prop-2-en-1-one], for which the Ki was over 10000 nM.

For `N#Cc1ccc(-c2c[nH]c(C3C(c4ccccc4)CCCN3C(=O)/C=C/c3cc(Cl)ccc3-n3cnnn3)n2)cc1` (stereo not drawn) [Example 1-22, (E)-4-(2-(1-(3-(5-chloro-2-(1H-tetrazol-1-yl)phenyl)acryloyl)-3-phenylpiperidin-2-yl)-1H-imidazol-4-yl)benzonitrile], the Ki was determined as 3260 nM.

As to `O=C(CCc1cc(Cl)ccc1-n1cnnn1)N1CCCC(c2ccccc2)C1c1nc(-c2ccc(Cl)cc2)c[nH]1` (stereo not drawn) [Example 1-23, 3-(5-chloro-2-(1H-tetrazol-1-yl)phenyl)-1-(2-(4-(4-chlorophenyl)-1H-imidazol-2-yl)-3-phenylpiperidin-1-yl)propan-1-one], the Ki is over 10000 nM. The figure for `N#Cc1ccc(-c2c[nH]c(C3C(c4ccccc4)CCCN3C(=O)CCc3cc(Cl)ccc3-n3cnnn3)n2)cc1` (stereo not drawn) [Example 1-24, 4-(2-(1-(3-(5-chloro-2-(1H-tetrazol-1-yl)phenyl)propanoyl)-3-phenylpiperidin-2-yl)-1H-imidazol-4-yl)benzonitrile] is 8510 nM.

`N#Cc1cccc(-c2c[nH]c(C3C(c4ccccc4)CCCN3C(=O)/C=C/c3cc(Cl)ccc3-n3cnnn3)n2)c1` (stereo not drawn) [Example 1-27, (E)-3-(2-(1-(3-(5-chloro-2-(1H-tetrazol-1-yl)phenyl)acryloyl)-3-phenylpiperidin-2-yl)-1H-imidazol-4-yl)benzonitrile]: the Ki is over 10000 nM. Regarding `COc1cccc(-c2c[nH]c(C3C(c4ccccc4)CCCN3C(=O)/C=C/c3cc(Cl)ccc3-n3cnnn3)n2)c1` (stereo not drawn) [Example 1-28, (E)-3-(5-chloro-2-(1H-tetrazol-1-yl)phenyl)-1-(2-(4-(3-methoxyphenyl)-1H-imidazol-2-yl)-3-phenylpiperidin-1-yl)prop-2-en-1-one], the Ki was over 10000 nM. As for `CS(=O)(=O)c1ccc(-c2c[nH]c(C3C(c4ccccc4)CCCN3C(=O)/C=C/c3cc(Cl)ccc3-n3cnnn3)n2)cc1` (stereo not drawn) [Example 1-29, (E)-3-(5-chloro-2-(1H-tetrazol-1-yl)phenyl)-1-(2-(4-(4-(methylsulfonyl)phenyl)-1H-imidazol-2-yl)-3-phenylpiperidin-1-yl)prop-2-en-1-one], the figure is over 10000 nM. Turning to `O=C(/C=C/c1cc(Cl)ccc1-n1cnnn1)N1CCCC(c2ccccc2)C1c1nc(-c2ccc(C(F)(F)F)cc2)c[nH]1` (stereo not drawn) [Example 1-30, (E)-3-(5-chloro-2-(1H-tetrazol-1-yl)phenyl)-1-(3-phenyl-2-(4-(4-(trifluoromethyl)phenyl)-1H-imidazol-2-yl)piperidin-1-yl)prop-2-en-1-one], the Ki was over 10000 nM. As for `O=C(/C=C/c1cc(Cl)ccc1-n1cnnn1)N1CCCC(c2ccccc2)C1c1nc(-c2cccc(C(F)(F)F)c2)c[nH]1` (stereo not drawn) [Example 1-31, (E)-3-(5-chloro-2-(1H-tetrazol-1-yl)phenyl)-1-(3-phenyl-2-(4-(3-(tifluoromethyl)phenyl)-1H-imidazol-2-yl)piperidin-1-yl)prop-2-en-1-one], the figure is over 10000 nM.

In the case of `O=C(O)c1ccc(NC(=O)C2C(c3ccc(C(F)(F)F)cc3)CCCN2C(=O)/C=C/c2cc(Cl)ccc2-n2cnnn2)cc1` (stereo not drawn) [Example 1-32, (E)-4-(1-(3-(5-chloro-2-(1H-tetrazol-1-yl)phenyl)acryloyl)-3-(4-(trifluoromethyl)phenyl)piperidine-2-carboxamido)benzoic acid], the Ki turned out to be 218 nM.

The term Ki denotes the equilibrium dissociation constant of an inhibitor or competing ligand from its target.
